Data taken from paper PMC12596758 (Clinical pharmacology and therapeutics, 2025).
Read-outs that look alike come from different tables or passages of the source.

Experiments:
[1] = system: OCT2; details: read-out: IC50 for OCT2; cited from earlier work
[2] = system: nicotinamide N-methyltransferase, NNMT; details: cited from earlier work
[3] = system: aldehyde oxidase, AO; details: cited from earlier work
[4] = system: OCT1; details: potent OCT1 inhibitor new chemical entity vs placebo, healthy adults; cited from earlier work
[5] = for relative plasma concentrations between study arms: targeted analysis, baseline vs cimetidine exposure
[6] = system: Oct1; details: Oct1 knockout mice vs wild-type mice, single oral dose of metformin; cited from earlier work
[7] = excreted unchanged into urine; cited from earlier work
[8] = cited from earlier work
[9] = rats, cimetidine 100 mg/kg intraperitoneally; cited from earlier work
[10] = clinical; details: both, human, po; for Cmax: plasma
[11] = pyrimethamine 75 mg, healthy adults; cited from earlier work
[12] = cimetidine 400 mg vs baseline, healthy adults
[13] = decrease with cimetidine 400 mg vs baseline, healthy adults
[14] = increase with cimetidine 400 mg vs baseline, healthy adults
[15] = cimetidine 400 mg vs baseline, healthy adults, listed as NMA

## CN/C(=N/CCSCc1nc[nH]c1C)NC#N [Cimetidine, cimetidine]
[1]
  IC50: 23.6 to 207 µM
[2]
  inhibition of NNMT activity: does not inhibit
[3]
  inhibition of AO activity: does not inhibit

## CC(C)C(=O)O[C@H](CC(=O)[O-])C[N+](C)(C)C [Isobutyryl-L-carnitine, isobutyryl-L-carnitine]
[4]
  decrease in plasma exposure: 35%
[5]; [12]
  AUC(0–4 h), effect of cimetidine exposure vs baseline (in words): did not differ
  AUC(0–24 h), effect of cimetidine exposure vs baseline (in words): did not differ
  Cmax, effect of cimetidine exposure vs baseline (in words): did not differ
[5]; [13]
  AUC(0–24 h) %Change (cimetidine exposure/baseline), decrease (↓): 4% (↓)
  Cmax %Change (cimetidine exposure/baseline), decrease (↓): 6% (↓)

## CN(C)C(=N)N=C(N)N [Metformin]
[6]
  reduction of hepatic metformin concentration: 3.4 fold
[7]
  share of urinary excretion through glomerular filtration: 25%
  share of urinary excretion through renal secretion: 75%
[8]; oral metformin 250–500 mg with cimetidine, healthy adults
  decrease in CLr: 27–45%
[8]; similar cimetidine dosing regimen (400 mg), not statistically significant, ref 26 (Koishikawa et al.)
  reduction in metformin CLr: 15%
[9]
  increase in metformin blood concentrations: 3.2 fold
  reduction in CLr: 73%
[10]
  Cmax: 168 ng/mL
[10]; 50 mg
  Cmax: 124 ng/mL
[5]; MATE1 c.−66T>C (rs2252281), baseline arm, p = 0.042
  higher AUC(0–24 h), group TT compared to heterozygous group TC: 1.42 fold
[5]; [13]
  CLr,b %Change (cimetidine exposure/baseline), decrease (↓): 17% (↓)
[5]; decrease with cimetidine 400 mg vs baseline, healthy adults, CLr based on 0–24 h
  CLr,a %Change (cimetidine exposure/baseline), decrease (↓): 8% (↓)
[5]; from the observed CLr decrease
  Renal OCT2 alone (AUC(0–24 h)) % Change Observed data, increase (↑): 8% (↑)
[5]; [14]
  AUC(0–24 h) %Change (cimetidine exposure/baseline), increase (↑): 24% (↑)
  Ae(0–4 h) %Change (cimetidine exposure/baseline), increase (↑): 4% (↑)
[5]; increase with cimetidine 400 mg vs baseline, healthy adults, listed as metformin
  AUC(0–24 h) %Change (cimetidine exposure/baseline), increase (↑): 24%
[5]; individuals homozygous for OCT1 c.480G>C (p.Leu160Phe, rs683369), p = 0.006
  increase in Cmax with cimetidine treatment: 48%
[5]; individuals homozygous for OCT1 c.480G>C (p.Leu160Phe, rs683369), p = 0.025
  increase in AUC(0–24 h) with cimetidine treatment: 33%
[5]; participants homozygous for OCT2 c.1506C>T (p.Val502=, rs316003), p = 0.022
  increase in AUC(0–24 h) with cimetidine: 27%
[5]; participants homozygous for OCT2 c.518+32G>C (rs2774230) or c.1506C>T (rs316003)
  reduction in CLr,a with cimetidine: 9%
[5]; participants homozygous for OCT2 c.518+32G>C (rs2774230), p = 0.013
  increase in AUC(0–24 h) with cimetidine: 35%

## Cn1cnc2c(ncn2[C@@H]2O[C@H](CO)[C@@H](O)[C@H]2O)c1=N [N1-Methyladenosine, N1-methyladenosine]
[11]
  reduction in CLr: 47%
[10]; plasma and urine
  CL renal: 68.3 mL/min
[10]
  Cmax: 2.6 ng/mL
[10]; 50 mg
  Cmax: 2.6 ng/mL
[5]; [12]
  AUC(0–4 h), effect of cimetidine exposure vs baseline (in words): comparable
  AUC(0–24 h), effect of cimetidine exposure vs baseline (in words): comparable
  Ae(0–4 h), effect of cimetidine exposure vs baseline (in words): comparable
  Ae(0–24 h), effect of cimetidine exposure vs baseline (in words): comparable
  CLr,a, effect of cimetidine exposure vs baseline (in words): No change
  CLr,b, effect of cimetidine exposure vs baseline (in words): comparable
  Cmax, effect of cimetidine exposure vs baseline (in words): No change
[5]; [15]
  CLr,a, effect of cimetidine exposure vs baseline (in words): comparable
  Cmax, effect of cimetidine exposure vs baseline (in words): comparable
[5]; [13]
  AUC(0–4 h) %Change (cimetidine exposure/baseline), decrease (↓): 5% (↓)
  AUC(0–24 h) %Change (cimetidine exposure/baseline), decrease (↓): 5% (↓)
  Ae(0–24 h) %Change (cimetidine exposure/baseline), decrease (↓): 4% (↓)
[5]; [14]
  Ae(0–4 h) %Change (cimetidine exposure/baseline), increase (↑): 44% (↑)
  CLr,b %Change (cimetidine exposure/baseline), increase (↑): 53% (↑)

## C[n+]1cccc(C(=O)O)c1 [N1-methyl nicotinic acid]
[5]
  relative plasma concentrations between study arms: no significant differences

## CC(=O)OCC[N+](C)(C)C [acetylcholine]
[5]
  relative plasma concentrations between study arms: no significant differences

## C[N+](C)(C)CC(O)CC(=O)[O-] (stereo not drawn) [carnitine]
[5]
  relative plasma concentrations between study arms: no significant differences

## C[N+](C)(C)CCO [choline]
[5]
  relative plasma concentrations between study arms: no significant differences

## C[N+](C)(C)CC(=O)[O-] [glycine betaine]
[5]
  relative plasma concentrations between study arms: no significant differences

## N[C@@H](Cc1c[nH]c2ccccc12)C(=O)O [tryptophan]
[5]
  relative plasma concentrations between study arms: no significant differences
